Assay results reported in US8883841B2, “Oncogenic ras-specific cytotoxic compound and methods of use thereof” (The Board of Regents of the University of Texas System, priority 2005, dated 2014).
Like-named read-outs stand apart in the source and are kept apart here.

Key:
miapac = experiment: Cell viability, miapac pancreatic cancer cells; type: cell-based, human; conditions: for IC50: Homo sapiens, Pancreatic cancer cell, read-out: IC50 (−LogM) (converted)
H2087 = experiment: Cell viability, H2087 lung cancer cells; type: cell-based, human; conditions: for IC50: Homo sapiens
Ovcar443 = experiment: Cell viability, Ovcar443 ovary cancer cells; type: cell-based
Heb46 = experiment: Cell viability, Heb46 kidney cells; type: cell-based
H322 cells = experiment: Cell viability, H322 lung cancer cells; type: cell-based, human; conditions: for IC50: Homo sapiens
DLD1 = experiment: Cell viability, DLD1 colon cancer cells; type: cell-based, human; conditions: for IC50: Homo sapiens
Ovca429 = experiment: Cell viability, Ovca429 ovary cancer cells; type: cell-based
A549 cells = experiment: Cell viability, A549 lung cancer cells; type: cell-based, human; conditions: A549, Lung
AsPC-1 = experiment: Cell viability, AsPC-1 pancreatic cancer cells; type: cell-based, human; conditions: for IC50: Homo sapiens
H23 = experiment: Cell viability, H23 lung cancer cells; type: cell-based, human; conditions: for IC50: Homo sapiens
Sw620 = experiment: Cell viability, Sw620 colon cancer cells; type: cell-based, human; conditions: for IC50: Homo sapiens
T29Kt1 cells [1] = conditions: Table 1, value is the negative log10 of mol/L
H226B cells = experiment: Cell viability, H226B lung cancer cells; type: cell-based, human; conditions: for IC50: Homo sapiens
H2009 = experiment: Cell viability, H2009 lung cancer cells; type: cell-based, human; conditions: for IC50: Homo sapiens
A549CK8 = experiment: Cell viability, A549CK8 lung cancer cells; type: cell-based, human; conditions: for IC50: Homo sapiens, read-out: IC50 (−LogM) (converted)
Ovcar3 = experiment: Cell viability, Ovcar3 ovary cancer cells; type: cell-based; conditions: for IC50: Homo sapiens, OVCAR-3
H1395 = experiment: Cell viability, H1395 lung cancer cells; type: cell-based, human; conditions: for IC50: Homo sapiens
Capanc-1 = experiment: Cell viability, Capanc-1 pancreatic cancer cells; type: cell-based, human; conditions: capanc1, Pancrease
Hey = experiment: Cell viability, Hey ovary cancer cells; type: cell-based
Hct116 = experiment: Cell viability, Hct116 colon cancer cells; type: cell-based, human; conditions: for IC50: Homo sapiens
HKE3 = experiment: Cell viability, HKE3 colon cancer cells; type: cell-based, human; conditions: HKE3, Colon; for IC50: Homo sapiens, read-out: IC50 (−LogM) (converted)
SKOV3 = experiment: Cell viability, SKOV3 ovary cancer cells; type: cell-based; conditions: for IC50: Homo sapiens, SK-OV-3
H1299 cells = experiment: Cell viability, H1299 lung cancer cells; type: cell-based, human; conditions: for IC50: Homo sapiens
H1933 = experiment: Cell viability, H1933 lung cancer cells; type: cell-based, human; conditions: for IC50: Homo sapiens, read-out: IC50 (−LogM) (converted)
CT116P53 = experiment: Cell viability, CT116P53 colon cancer cells; type: cell-based, human; conditions: for IC50: Homo sapiens, read-out: IC50 (−LogM) (converted)
Heb44 = experiment: Cell viability, Heb44 kidney cells; type: cell-based
H460 cells [2] = experiment: cells; conditions: Homo sapiens
H2122 = experiment: Cell viability, H2122 lung cancer cells; type: cell-based, human; conditions: for IC50: Homo sapiens
T29Kt1 cells [3] = experiment: cells; conditions: Homo sapiens, T29Kt1, read-out: IC50 in T29k cells, Table 1
H460 cells [4] = conditions: H460, Lung
[5] = NCI-H460, read-out: IC50 (−LogM), H460, Lung (converted)
[6] = NCI-H460, read-out: IC50 in H460 cells, Table 1

## O=Cc1cn(Cc2ccc(Br)cc2)c2ccccc12 [Oncrasin K029, 1-(4-bromobenzyl)-1H-indole-3-carbaldehyde]
miapac
  IC50: < 31.6 µM
H2087; NCI-H2087, read-out: IC50 (−LogM) (converted)
  IC50: 31.6 µM
Ovcar443
  IC50: 10 µM
Heb46; listed as OnK29
  IC50 (−LogM): 5.6 −LogM
Heb46; listed as Onk29
  IC50 (−LogM): 6.6 −LogM
H322 cells; NCI-H322, read-out: IC50 (−LogM) (converted)
  IC50: 31.6 µM
DLD1; DLD-1, read-out: IC50 (−LogM) (converted)
  IC50: < 31.6 µM
Ovca429
  IC50: 3.16 µM
A549 cells; listed as OnK29
  IC50 (−LogM): 5 −LogM
A549 cells; listed as Onk29
  IC50 (−LogM): >4.5 −LogM
AsPC-1; ASPC1, Pancrease, listed as OnK29
  IC50 (−LogM): 5.3 −LogM
AsPC-1; ASPC1, read-out: IC50 (−LogM), ASPC1, Pancrease (converted)
  IC50: 3.98 µM
H23; NCI-H23, read-out: IC50 (−LogM) (converted)
  IC50: 31.6 µM
Sw620; SW-620, read-out: IC50 (−LogM), Sw620, Colon (converted)
  IC50: 31.6 µM
Sw620; Sw620, Colon, listed as OnK29
  IC50 (−LogM): >4.5 −LogM
T29Kt1 cells [1]; listed as K29
  IC50 in T29k cells: 6.6
T29Kt1 cells [1]
  IC50 in T29k cells: 5
H226B cells; H226B, Lung, first H226B line, listed as Onk29
  IC50 (−LogM): 7.1 −LogM
H226B cells; H226B, Lung, second H226B line, listed as Onk29
  IC50 (−LogM): 5.5 −LogM
H226B cells; read-out: IC50 (−LogM), H226B, Lung, first H226B line (converted)
  IC50: 126 nM
H226B cells; read-out: IC50 (−LogM), H226B, Lung, second H226B line (converted)
  IC50: 5010 nM
H2009; NCI-H2009, read-out: IC50 (−LogM) (converted)
  IC50: < 31.6 µM
A549CK8
  IC50: 3.16 µM
Ovcar3
  IC50: 5010 nM
H1395; NCI-H1395, read-out: IC50 (−LogM) (converted)
  IC50: 31.6 µM
Capanc-1; listed as OnK29
  IC50 (−LogM): 5 −LogM
Capanc-1; listed as Onk29
  IC50 (−LogM): 6 −LogM
Hey
  IC50: 31.6 µM
Hct116; Hct116, Colon, listed as OnK29
  IC50 (−LogM): 5.5 −LogM
Hct116; HCT-116, read-out: IC50 (−LogM), Hct116, Colon (converted)
  IC50: 2510 nM
HKE3; first HKE3 line, listed as OnK29
  IC50 (−LogM): 6.6 −LogM
HKE3; first HKE3 line, listed as Onk29
  IC50 (−LogM): 7 −LogM
HKE3; second HKE3 line, listed as OnK29
  IC50 (−LogM): 5.8 −LogM
HKE3; second HKE3 line, listed as Onk29
  IC50 (−LogM): 6.3 −LogM
SKOV3
  IC50: 3.16 µM
H1299 cells; NCI-H1299, read-out: IC50 (−LogM), h1299, Lung (converted)
  IC50: 12.6 µM
H1299 cells; h1299, Lung, listed as OnK29
  IC50 (−LogM): 5.1 −LogM
H1933
  IC50: 31.6 µM
CT116P53
  IC50: < 31.6 µM
Heb44; listed as OnK29
  IC50 (−LogM): 7.2 −LogM
Heb44; listed as Onk29
  IC50 (−LogM): 8.1 −LogM
H460 cells [2]; [5]
  IC50: 3.16 nM
H460 cells [2]; [6]
  IC50: 3.16 nM
H2122; NCI-H2122, read-out: IC50 (−LogM) (converted)
  IC50: 2000 nM

## OCc1cn(Cc2ccccc2Cl)c2ccccc12 [Oncrasin K006, [1-(2-chlorobenzyl)-1H-indol-3-yl]methanol]
miapac; miapac, Pancrease
  IC50: < 31.6 µM
H2087; NCI-H2087, H2087, Lung, read-out: IC50 (−LogM) (converted)
  IC50: 25.1 µM
Ovcar443
  IC50: 7.94 µM
Heb46
  IC50: 2000 nM
H322 cells; NCI-H322, H322, Lung, read-out: IC50 (−LogM) (converted)
  IC50: 31.6 µM
DLD1; DLD-1, DLD1, Colon, read-out: IC50 (−LogM) (converted)
  IC50: < 31.6 µM
Ovca429
  IC50: 10 µM
A549 cells; Homo sapiens, read-out: IC50 (−LogM) (converted)
  IC50: 12.6 µM
AsPC-1; ASPC1, Pancrease, read-out: IC50 (−LogM) (converted)
  IC50: 3.98 µM
H23; NCI-H23, H23, Lung, read-out: IC50 (−LogM) (converted)
  IC50: 25.1 µM
Sw620; SW-620, Sw620, Colon, read-out: IC50 (−LogM) (converted)
  IC50: 10 µM
H226B cells; H226B, Lung, first H226B line, read-out: IC50 (−LogM) (converted)
  IC50: 2.51 nM
H226B cells; H226B, Lung, second H226B line, read-out: IC50 (−LogM) (converted)
  IC50: 39.8 nM
H2009; NCI-H2009, H2009, Lung, read-out: IC50 (−LogM) (converted)
  IC50: 31.6 µM
A549CK8; A549CK8, Lung
  IC50: 3.98 µM
T29Kt1 cells [3]
  IC50: 2510 nM
Ovcar3
  IC50: 631 nM
H1395; NCI-H1395, H1395, Lung, read-out: IC50 (−LogM) (converted)
  IC50: 31.6 µM
Capanc-1; Homo sapiens, Pancreatic cancer cell, read-out: IC50 (−LogM) (converted)
  IC50: 12.6 µM
Hey
  IC50: 31.6 µM
Hct116; HCT-116, Hct116, Colon, read-out: IC50 (−LogM) (converted)
  IC50: 501 nM
HKE3; first HKE3 line
  IC50: 126 nM
HKE3; second HKE3 line
  IC50: 251 nM
SKOV3
  IC50: 3.98 µM
H1299 cells; NCI-H1299, h1299, Lung, read-out: IC50 (−LogM) (converted)
  IC50: 10 µM
H1933; H1933, Lung
  IC50: 15.8 µM
CT116P53; CT116P53, Colon
  IC50: < 31.6 µM
Heb44
  IC50: 10 nM
H460 cells [2]; [5]
  IC50: 100 nM
H460 cells [2]; [6]
  IC50: 100 nM
H2122; NCI-H2122, H2122, Lung, read-out: IC50 (−LogM) (converted)
  IC50: 3980 nM

## OCc1cn(Cc2ccc(Br)cc2)c2ccccc12 [Oncrasin K73, 1H-Indole-3-methanol, 1-{(4-bromophenyl)methyl]-(9CI)]
miapac; miapac, Pancrease
  IC50 (−LogM): >4.5 −LogM
H2087; H2087, Lung
  IC50 (−LogM): 4.5 −LogM
Ovcar443
  IC50 (−LogM): 4.8 −LogM
Heb46
  IC50 (−LogM): 6.1 −LogM
H460 cells [4]
  IC50 (−LogM): 8.5 −LogM
H322 cells; H322, Lung
  IC50 (−LogM): >4.5 −LogM
DLD1; DLD1, Colon
  IC50 (−LogM): >4.5 −LogM
Ovca429
  IC50 (−LogM): 5.5 −LogM
A549 cells
  IC50 (−LogM): >4.5 −LogM
AsPC-1; ASPC1, Pancrease
  IC50 (−LogM): 5.5 −LogM
H23; H23, Lung
  IC50 (−LogM): 4.5 −LogM
Sw620; Sw620, Colon
  IC50 (−LogM): >4.5 −LogM
T29Kt1 cells [1]
  IC50 in T29k cells: 6.4
H226B cells; H226B, Lung, first H226B line
  IC50 (−LogM): 7 −LogM
H226B cells; H226B, Lung, second H226B line
  IC50 (−LogM): 5.8 −LogM
H2009; H2009, Lung
  IC50 (−LogM): >4.5 −LogM
A549CK8; A549CK8, Lung
  IC50 (−LogM): 5.5 −LogM
Ovcar3
  IC50 (−LogM): 5.9 −LogM
H1395; H1395, Lung
  IC50 (−LogM): >4.5 −LogM
Capanc-1
  IC50 (−LogM): 5.5 −LogM
Hey
  IC50 (−LogM): 4.5 −LogM
Hct116; Hct116, Colon
  IC50 (−LogM): 5.5 −LogM
HKE3; first HKE3 line
  IC50 (−LogM): 6.5 −LogM
HKE3; second HKE3 line
  IC50 (−LogM): 6.1 −LogM
SKOV3
  IC50 (−LogM): 5.5 −LogM
H1299 cells; h1299, Lung
  IC50 (−LogM): >4.5 −LogM
H1933; H1933, Lung
  IC50 (−LogM): 4.5 −LogM
CT116P53; CT116P53, Colon
  IC50 (−LogM): >4.5 −LogM
Heb44
  IC50 (−LogM): 7.4 −LogM
H2122; H2122, Lung
  IC50 (−LogM): 5.6 −LogM
